From patent US11919912B2, “Modulators of methyl modifying enzymes, compositions and uses thereof” (Constellation Pharmaceuticals, Inc., priority 2018, dated 2024)

How the values were obtained:
H3K27me3 in Hela cells = experiment: H3K27me3 Alpha Hela Assay (AlphaLISA); format: cell-based; conditions: Homo sapiens, 72 hrs
Experimental: H3K27me3 Alpha Hela Assay (AlphaLISA). Ten different doses of each test compound (in a series of 3-fold dilutions) were plated in duplicate 384-well tissue culture treated plates (Catalog #6007680; Perkin Elmer, Waltham, MA). Hela cells grown in culture were trypsinized and counted using a Countess® cell counter (Catalog #C10281; Life Technologies, Grand Island, NY). Cell were diluted to 67,000 cells per mL in10% DMEM (Catalog #10569-010 Life Technologies, Grand Island, NY) and 15 μL (1,000 cells) were plated into each well using the Biotek MicroFlo™ Select Dispenser (BioTek Instruments, Inc. Vermont, USA),) of the 384-well plate. Plates were incubated at 37° C./5% CO2 for 72 hrs. One of the duplicate plates was processed for HeLa assay and the other for viability. […] The plates were then read using an EnVision-Alpha Reader (model #2104 Perkin Elmer; Waltham, MA).
Cell viability was assayed by adding 15 μL of Cell Titer Glo ((Catalog #G9241 Promega Madison, WI) to each well with cells with media. The plates were incubated at RT for 15-20 minutes on a plate shaker at low speed. The plates were then read using an EnVision-Alpha Reader (model #2104 Perkin Elmer; Waltham, MA).

Karpas-422 cell lines = experiment: Karpas-422 viability assay (Cell Titer-Glo); format: cell-based; conditions: Homo sapiens, Cell Titer-Glo on Day 8, cells split every 4 days
Experimental: Karpas-422 cell lines were obtained from DSMZ (Braunschweig, Germany) and were grown in RPMI-1640 media. All media contained 10% fetal bovine serum (FBS) and 1% penicillin/streptomycin (Invitrogen). 20K cells per well were plated onto 96 well compound coated plates. Cells were split and seeded at original plating density (based on the DMSO well counts) every 4 days into plates containing fresh EZH2 inhibitors. Relative cell numbers were assessed by Cell Titer-Glo luminescent cell viability assay (Promega) on Day 8. GraphPad Prism 5 was used for curve fitting and GI50 values were reported.

PRC2 containing wt EZH2 = biological target: T1, PRC2 containing wt EZH2 (Homo sapiens, UniProt Q15910); experiment: EZH2 biochemical assay (IC50), incorporation of 3H-SAM into a biotinylated H3 peptide; conditions: 30 pM PRC2 (wt EZH2, pentameric complex), pre-incubated 3-5 h, reaction 18-22 h
T1 construct: made in house
T1 sequence (Q15910 whole entry): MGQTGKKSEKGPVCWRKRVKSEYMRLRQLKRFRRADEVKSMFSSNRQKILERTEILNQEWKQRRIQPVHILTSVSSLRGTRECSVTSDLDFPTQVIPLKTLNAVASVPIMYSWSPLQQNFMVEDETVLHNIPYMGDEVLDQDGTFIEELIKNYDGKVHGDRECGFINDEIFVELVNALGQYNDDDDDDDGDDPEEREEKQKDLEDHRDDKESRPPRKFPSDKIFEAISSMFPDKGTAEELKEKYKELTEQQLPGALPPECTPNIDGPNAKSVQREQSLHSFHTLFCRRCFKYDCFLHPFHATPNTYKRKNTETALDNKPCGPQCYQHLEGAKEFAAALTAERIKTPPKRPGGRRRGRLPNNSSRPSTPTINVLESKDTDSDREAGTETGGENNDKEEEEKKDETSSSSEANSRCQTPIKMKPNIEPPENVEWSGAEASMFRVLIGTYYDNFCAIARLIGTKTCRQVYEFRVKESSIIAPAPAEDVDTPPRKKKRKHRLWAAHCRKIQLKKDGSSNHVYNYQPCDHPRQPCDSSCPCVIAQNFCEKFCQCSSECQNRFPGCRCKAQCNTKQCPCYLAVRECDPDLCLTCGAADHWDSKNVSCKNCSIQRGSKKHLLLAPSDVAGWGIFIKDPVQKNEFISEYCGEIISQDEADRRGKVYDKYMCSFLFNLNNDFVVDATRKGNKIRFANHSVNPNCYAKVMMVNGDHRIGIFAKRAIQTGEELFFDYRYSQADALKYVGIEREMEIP
T1 sequence (O75530 whole entry partner): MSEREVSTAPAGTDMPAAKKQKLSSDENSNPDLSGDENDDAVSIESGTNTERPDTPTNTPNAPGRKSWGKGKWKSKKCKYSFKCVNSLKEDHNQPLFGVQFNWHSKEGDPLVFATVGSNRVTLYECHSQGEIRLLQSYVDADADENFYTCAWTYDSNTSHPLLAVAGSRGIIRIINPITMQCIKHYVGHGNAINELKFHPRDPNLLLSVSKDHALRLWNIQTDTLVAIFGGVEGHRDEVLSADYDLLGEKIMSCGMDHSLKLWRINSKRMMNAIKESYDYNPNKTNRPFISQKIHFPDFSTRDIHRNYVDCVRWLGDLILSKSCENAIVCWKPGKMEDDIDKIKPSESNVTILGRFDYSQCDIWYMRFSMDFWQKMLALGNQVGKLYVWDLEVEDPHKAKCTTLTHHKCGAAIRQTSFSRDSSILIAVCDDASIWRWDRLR
T1 sequence (Q15022 whole entry partner): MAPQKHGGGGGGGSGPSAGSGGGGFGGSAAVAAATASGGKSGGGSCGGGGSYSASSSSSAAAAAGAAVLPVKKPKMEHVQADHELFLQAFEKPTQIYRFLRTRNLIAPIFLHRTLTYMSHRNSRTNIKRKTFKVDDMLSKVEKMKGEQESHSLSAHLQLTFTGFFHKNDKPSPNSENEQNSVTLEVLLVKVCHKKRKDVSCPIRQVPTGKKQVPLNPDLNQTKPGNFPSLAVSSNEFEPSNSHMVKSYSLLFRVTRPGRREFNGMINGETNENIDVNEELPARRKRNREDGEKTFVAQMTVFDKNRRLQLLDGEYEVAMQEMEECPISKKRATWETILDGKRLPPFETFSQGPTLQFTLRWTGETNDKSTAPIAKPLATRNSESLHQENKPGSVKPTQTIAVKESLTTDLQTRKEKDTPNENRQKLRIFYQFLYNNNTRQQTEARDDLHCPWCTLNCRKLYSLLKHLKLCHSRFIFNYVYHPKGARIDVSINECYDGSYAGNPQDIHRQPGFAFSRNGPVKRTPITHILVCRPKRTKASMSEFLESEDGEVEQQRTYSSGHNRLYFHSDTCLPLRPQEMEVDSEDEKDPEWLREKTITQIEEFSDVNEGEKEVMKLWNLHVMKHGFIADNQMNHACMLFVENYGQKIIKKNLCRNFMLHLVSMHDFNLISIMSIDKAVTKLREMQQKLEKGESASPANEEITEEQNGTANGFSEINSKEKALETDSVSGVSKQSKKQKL
T1 sequence (Q09028 whole entry partner): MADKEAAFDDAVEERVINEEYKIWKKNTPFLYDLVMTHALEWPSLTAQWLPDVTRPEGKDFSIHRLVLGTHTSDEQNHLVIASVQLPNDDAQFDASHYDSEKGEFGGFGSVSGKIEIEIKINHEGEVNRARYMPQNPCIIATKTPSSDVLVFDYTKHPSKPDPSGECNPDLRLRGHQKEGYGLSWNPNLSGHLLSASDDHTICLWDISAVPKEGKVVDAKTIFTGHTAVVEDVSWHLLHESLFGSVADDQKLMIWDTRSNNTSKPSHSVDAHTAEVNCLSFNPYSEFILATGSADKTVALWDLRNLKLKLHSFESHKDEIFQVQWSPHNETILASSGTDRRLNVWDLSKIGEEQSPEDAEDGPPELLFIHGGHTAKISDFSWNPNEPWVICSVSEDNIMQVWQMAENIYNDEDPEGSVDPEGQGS
T1 sequence (Q6ZN18 whole entry partner): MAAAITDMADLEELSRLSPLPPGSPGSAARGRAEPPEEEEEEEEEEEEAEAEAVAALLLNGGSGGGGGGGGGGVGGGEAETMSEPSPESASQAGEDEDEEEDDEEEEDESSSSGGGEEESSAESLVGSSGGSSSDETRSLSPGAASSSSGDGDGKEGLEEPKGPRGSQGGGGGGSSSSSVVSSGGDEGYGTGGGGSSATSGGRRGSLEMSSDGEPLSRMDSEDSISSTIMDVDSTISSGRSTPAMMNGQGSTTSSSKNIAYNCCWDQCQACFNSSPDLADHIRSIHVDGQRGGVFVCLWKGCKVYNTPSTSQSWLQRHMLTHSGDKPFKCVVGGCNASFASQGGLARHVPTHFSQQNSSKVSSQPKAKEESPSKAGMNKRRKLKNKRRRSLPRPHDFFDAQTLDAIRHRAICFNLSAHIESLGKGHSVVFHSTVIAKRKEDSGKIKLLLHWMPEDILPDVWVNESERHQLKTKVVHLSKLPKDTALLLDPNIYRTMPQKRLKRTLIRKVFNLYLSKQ
Experimental: EZH2 biochemical assay (IC50): Compound potencies were assessed through incorporation of ^3H-SAM into a biotinylated H3 peptide. […] Quenching was accomplished by addition of 20 μl of STOP solution (50 mM Tris (pH 8.5), 200 mM EDTA, 2 mM SAH). 35 μl of the quenched solution was transferred to streptavidin coated FlashPlates (PerkinElmer), incubated 1-2 h, washed, and read in a TopCount Reader (PerkinElmer).

EC50 (H3K27me3 in Hela cells)	GI50 (Karpas-422 cell lines)	IC50 (PRC2 containing wt EZH2)	SMILES
0.849 to 1.13 nM	5.7 nM		CSc1cc(C)[nH]c(=O)c1CN1CCc2c(Cl)c3c(c(C)c2C1=O)OC(C)([C@H]1CC[C@H](N(C)C)CC1)O3 (single isomer, unassigned) [Example 1, Peak 1, 9-Chloro-2-(Trans-4-(Dimethylamino)Cyclohexyl)-2,4-Dimethyl-6-((6-Methyl-4-(Methylthio)-2-Oxo-1,2-Dihydropyridin-3-Yl)Methyl)-7,8-Dihydro-[1,3]Dioxolo[4,5-g]Isoquinolin-5(6H)-One]
		0.061 to 0.073 nM	CSc1cc(C)[nH]c(=O)c1Cn1ccc2c(Cl)c3c(c(C)c2c1=O)OC(C)([C@H]1CC[C@H](N(C)C)CC1)O3 (mixture of isomers) [Example 2, 9-Chloro-2-(Trans-4-(Dimethylamino)Cyclohexyl)-2,4-Dimethyl-6-((6-Methyl-4-(Methylthio)-2-Oxo-1,2-Dihydropyridin-3-Yl)Methyl)-[1,3]Dioxolo[4,5-g]Isoquinolin-]
